Results on 26 compounds are retold here after patent publication US10722514B2 (FLX Bio, Inc., priority 2017, dated 2020).

Where a name gives a salt, the structure may show the parent alone.

The IC50 is the midpoint of a concentration-inhibition curve.

The target of one experiment is T1, recombinant full-length USP7 (Homo sapiens, UniProt Q93009).
T1 construct: A 25 μl reaction volume containing recombinant full-length USP7 (62 pM)
T1 sequence (Q93009 whole entry): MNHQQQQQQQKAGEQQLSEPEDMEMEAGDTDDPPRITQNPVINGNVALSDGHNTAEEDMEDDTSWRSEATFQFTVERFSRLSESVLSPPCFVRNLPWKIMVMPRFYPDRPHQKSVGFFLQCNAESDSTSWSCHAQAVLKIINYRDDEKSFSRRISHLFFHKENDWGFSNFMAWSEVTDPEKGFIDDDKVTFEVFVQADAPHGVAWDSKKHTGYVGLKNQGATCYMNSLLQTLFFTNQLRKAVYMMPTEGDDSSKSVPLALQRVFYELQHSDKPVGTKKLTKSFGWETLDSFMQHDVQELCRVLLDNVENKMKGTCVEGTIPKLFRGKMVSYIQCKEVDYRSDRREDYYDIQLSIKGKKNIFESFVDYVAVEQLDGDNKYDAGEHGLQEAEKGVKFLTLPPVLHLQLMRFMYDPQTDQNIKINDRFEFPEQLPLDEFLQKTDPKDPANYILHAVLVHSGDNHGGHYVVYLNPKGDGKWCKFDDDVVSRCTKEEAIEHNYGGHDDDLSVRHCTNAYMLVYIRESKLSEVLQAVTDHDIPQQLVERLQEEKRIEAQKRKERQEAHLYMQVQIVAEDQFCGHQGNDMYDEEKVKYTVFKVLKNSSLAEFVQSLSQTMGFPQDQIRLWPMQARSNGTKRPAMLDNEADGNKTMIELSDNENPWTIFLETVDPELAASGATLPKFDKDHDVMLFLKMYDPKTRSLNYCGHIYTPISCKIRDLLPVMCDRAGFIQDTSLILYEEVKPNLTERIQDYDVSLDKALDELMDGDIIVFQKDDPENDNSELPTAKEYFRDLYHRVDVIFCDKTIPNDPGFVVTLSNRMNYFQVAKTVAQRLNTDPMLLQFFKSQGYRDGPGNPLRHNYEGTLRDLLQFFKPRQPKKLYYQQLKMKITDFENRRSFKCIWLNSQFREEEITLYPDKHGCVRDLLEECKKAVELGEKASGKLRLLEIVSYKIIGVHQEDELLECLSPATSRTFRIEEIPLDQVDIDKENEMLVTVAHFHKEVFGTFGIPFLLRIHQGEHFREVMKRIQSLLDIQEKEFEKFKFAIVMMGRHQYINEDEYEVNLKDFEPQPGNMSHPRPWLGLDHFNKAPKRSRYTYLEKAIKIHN
Nature of the experiment: USP7-mediated ubiquitin-rhodamine cleavage assay. The note with it: recombinant full-length USP7 62 pM; ubiquitin-rhodamine 100 nM; 30-minute incubation with compound, 1 hour reaction at room temperature; read-out: Potency: USP7 IC50. In kind it is biochemical. In short, it runs like this: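 After compound and enzyme (62 pM) sat together 30 min at RT, 100 nM fluorogenic ubiquitin-rhodamine substrate was added for 1 h protected from light. Acetic acid quenched the reaction prior to the fluorescence read.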
`Cc1cc(Cl)cc(-c2ccnc3cc(CO)sc23)c1O[C@@H]1CC[C@H](N)C1` [Example 89, (7-(2-(((1R,3S)-3-Aminocyclopentyl)oxy)-5-chloro-3-methylphenyl)thieno[3,2-b]pyridin-2-yl)methanol]: the IC50 was in the range of 10 to 30 µM.

Consider `Cc1cc(Cl)cc(-c2ccnc3cc(CN4C(=O)C5CCCCC5C4=O)sc23)c1OC1CCNCC1` (centres unmarked) [Example 217], for which the IC50 was in the range of 1 to 10 µM.

As to `Cc1cc(Cl)cc(-c2ccnc3cc(CN4C(=O)C5C(C4=O)C5(C)C)sc23)c1O[C@H]1CCNC[C@@H]1F` (stereo partly drawn) [Example 383, 3-[[7-[5-chloro-2-[[(3S,4S)-3-fluoro-4-piperidyl]oxy]-3-methyl-phenyl]thieno[3,2-b]pyridin-2-yl]methyl]-6,6-dimethyl-3-azabicyclo[3.1.0]hexane-2,4-dione; 2,2,2-trifluoroacetic acid], the concentration for half-maximal inhibition (IC50) was less than 1 µM.

For the compound “3-((7-(5-Chloro-2-(((3S,4R)-4-fluoropiperidin-3-yl)oxy)-3-methyphenyl)thien[3,2-b]pyridin-2-yl)methyl)-1-(2,2,2-trifluoroethyl)pyrimidine-2,4(1H,3H)-dione [Example 4]”, the IC50 is less than 1 µM.

Take `Cc1cc(Cl)cc(-c2ccnc3cc(CN4C(=O)CCC4=O)sc23)c1OC1CCNCC1` [Example 210, 1-((7-(5-Chloro-3-methyl-2-(piperidin-4-yloxy)phenyl)thieno[3,2-b]pyridin-2-yl)methyl)pyrrolidine-2,5-dione]: the concentration for half-maximal inhibition (IC50) was less than 1 µM.

On to `Cc1cc(Cl)cc(-c2ccnc3cc(CN4C(=O)CCC4=O)sc23)c1O[C@@H]1CN(C(C)C)C[C@@H]1F` [Example 323, 1-[[7-[5-chloro-2-[(3R,4S)-4-fluoro-1-isopropyl-pyrrolidin-3-yl]oxy-3-methyl-phenyl]thieno[3,2-b]pyridin-2-yl]methyl]pyrrolidine-2,5-dione], for which the half-inhibitory concentration (IC50) was less than 1 µM.

Regarding `Cc1cc(Cl)cc(-c2ccnc3cc(Cn4c(=O)ccn(CC(F)(F)F)c4=O)sc23)c1OC1(C(F)(F)F)CCCNC1` (centres unmarked) [Example 274, 3-((7-(5-Chloro-3-methyl-2-((3-(trifluoromethy)piperidin-3-yl)oxy)phenyl)thieno[3,2-b]pyridin-2-yl)methyl)-1-(2,2,2-trifluoroethyl)pyrimidine-2,4(1H,3H)-dione], the IC50 was less than 1 µM.

As to `Cc1cc(Cl)cc(-c2ccnc3cc(CN4C(=O)CCC4=O)ccc23)c1O[C@@H]1CNC[C@@H]1F` [Example 100, 1-((4-(5-Chloro-2-(((3R,4S)-4-fluoropyrrolidin-3-yl)oxy)-3-methylphenyl)quinolin-7-yl)methyl)pyrrolidine-2,5-dione], the IC50 lay in the range of 10 to 30 µM.

Consider `Cc1cc([N+](=O)[O-])cc(-c2ccnc3cc(Cn4c(=O)ccn(CC(F)(F)F)c4=O)sc23)c1Oc1cncc(N)c1` [Example 281, 3-[[7-[2-[(5-amino-3-pyridyl)oxy]-3-methyl-5-nitro-phenyl]thieno[3,2-b]pyridin-2-yl]methyl]-1-(2,2,2-trifluoroethyl)pyrimidine-2,4-dione], for which the half-inhibitory concentration (IC50) was less than 1 µM.

For the compound `Cc1cc(Cl)cc(-c2ccnc3cc(Cn4cnc5ccccc5c4=O)sc23)c1O[C@H]1CCCNC1` [Example 385, 3-[[7-[5-chloro-3-methyl-2-[[(3S)-3-piperidyl]oxy]phenyl]thieno[3,2-b]pyridin-2-yl]methyl]quinazolin-4-one; 2,2,2-trifluoroacetic acid], the 50% inhibitory concentration (IC50) lay within 1 to 10 µM.

Take `CCC(O)c1cc2ncnc(-c3cc(Cl)cc(C)c3OCC3CNC3)c2s1` (centres unmarked) [Example 13, 1-(4-(2-(Azetidin-3-ylmethoxy)-5-chloro-3-methylphenyl)thieno[3,2-d]pyrimidin-6-yl)propan-1-ol]: the half-maximal inhibitory concentration (IC50) was 1 to 10 µM.

In the case of `Cc1cc(Cl)cc(-c2ncnc3cc(CN4C(=O)C5C(C4=O)C5(C)C)sc23)c1O[C@@H]1C[C@H]2CN[C@@H]1C2` (stereo partly drawn) [Example 354, 3-[[4-[2-[[(1S,4R,5R)-3-azabicyclo[2.2.1]heptan-5-yl]oxy]-5-chloro-3-methyl-phenyl]thieno[3,2-d]pyrimidin-6-yl]methyl]-6,6-dimethyl-3-azabicyclo[3.1.0]hexane-2,4-dione dihydrochloride], the half-maximal inhibitory concentration (IC50) was less than 1 µM.

`CCC(O)c1cc2nccc(-c3cc(Cl)cc(C)c3O[C@@H]3CCNC3)c2s1` (stereo partly drawn) [Example 51, 1-(7-(5-Chloro-3-methyl-2-(((R)-pyrrolidin-3-yl)oxy)phenyl)thieno[3,2-b]pyridin-2-yl)propan-1-ol]: the IC50 fell in the range of 1 to 10 µM.

Consider `Cc1cc(Cl)cc(-c2ccnc3cc(CN4C(=O)N(C)C(C)(C)C4=O)sc23)c1O[C@@H]1CNC[C@@H]1F` [Example 155, 3-((7-(5-Chloro-2-(((3R,4S)-4-fluoropyrrolidin-3-yl)oxy)-3-methylphenyl)thieno[3,2-b]pyridin-2-yl)methyl)-1,5,5-trimethylimidazolidine-2,4-dione], for which the IC50 was less than 1 µM.

`Cc1cc(C)c(O[C@H]2CCCNC2)c(-c2ccnc3cc(CO)sc23)c1` [Example 248, (S)-(7-(3,5-Dimethyl-2-(piperidin-3-yloxy)phenyl)thieno[3,2-b]pyridin-2-yl)methanol]: the 50% inhibitory concentration (IC50) fell in the range of 10 to 30 µM.

The experiment is the same for the next values; noted with them: recombinant full-length USP7 62 pM; ubiquitin-rhodamine 100 nM; 30-minute incubation, 1 hour reaction at room temperature; read-out: Potency (USP7 IC50).
On to `COC[C@@H]1CCCN1C1CC(Oc2c(C)cc(Cl)cc2-c2ccnc3cc(Cn4c(=O)ccn(CC(F)(F)F)c4=O)sc23)C1` (stereo partly drawn) [Example 686, 3-[[7-[5-chloro-2-[3-[(2S)-2-(methoxymethyl)pyrrolidin-1-yl]cyclobutoxy]-3-methyl-phenyl]thieno[3,2-b]pyridin-2-yl]methyl]-1-(2,2,2-trifluoroethyl)pyrimidine-2,4-dione; 2,2,2-trifluoroacetic acid], for which the concentration for half-maximal inhibition (IC50) is less than 1 µM.

Turning to `Cc1cc(Cl)cc(-c2ccnc3cc(Cn4c(=O)ccn(CC(F)(F)F)c4=O)sc23)c1OC1CCS(=O)(=O)CC1` [Example 680, 3-[[7-[5-chloro-2-(1,1-dioxoothian-4-yl)oxy-3-methyl-phenyl]thieno[3,2-b]pyridin-2-yl]methyl]-1-(2,2,2-trifluoroethyl)pyrimidine-2,4-dione], the half-maximal inhibitory concentration (IC50) is less than 1 µM.

Turning to `Cc1cc(Cl)cc(-c2ccnc3cc(Cn4c(=O)ccn(CC(F)(F)F)c4=O)sc23)c1OC1CC2(COC2)C1` [Example 679, 3-[[7-[5-chloro-3-methyl-2-(2-oxaspiro[3.3]heptan-6-yloxy)phenyl]thieno[3,2-b]pyridin-2-yl]methyl]-1-(2,2,2-trifluoroethyl)pyrimidine-2,4-dione], the IC50 is less than 1 µM.

As to `Cc1cc(Cl)cc(-c2ccnc3cc(Cn4c(=O)ccn(CC(F)(F)F)c4=O)sc23)c1Oc1ccncc1` [Example 681, 3-[[7-[5-chloro-3-methyl-2-(4-pyridyloxy)phenyl]thieno[3,2-b]pyridin-2-yl]methyl]-1-(2,2,2-trifluoroethyl)pyrimidine-2,4-dione; 2,2,2-trifluoroacetic acid], the concentration for half-maximal inhibition (IC50) was less than 1 µM.

Staying with this experiment, now noted: recombinant full-length USP7 62 pM; ubiquitin-rhodamine 100 nM; 30-minute pre-incubation, 1 hour reaction at room temperature; read-out: Potency (USP7 IC50).
Consider `Cc1cc([N+](=O)[O-])cc(-c2ccnc3cc(Cn4c(=O)ccn(C)c4=O)sc23)c1O[C@H]1CCCNC1` [Example 573, 1-methyl-3-[[7-[3-methyl-5-nitro-2-[[(3S)-3-piperidyl]oxy]phenyl]thieno[3,2-b]pyridin-2-yl]methyl]pyrimidine-2,4-dione; 2,2,2-trifluoroacetic acid], for which the IC50 was less than 1 µM.

As to `CCN1CCC[C@H](Oc2c(C)cc(Cl)cc2-c2ccnc3cc(Cn4c(=O)ccn(C)c4=O)sc23)CC1` [Example 493, 3-[[7-[5-chloro-2-[(4S)-1-ethylazepan-4-yl]oxy-3-methyl-phenyl]thieno[3,2-b]pyridin-2-yl]methyl]-1-methyl-pyrimidine-2,4-dione], the IC50 was less than 1 µM.

In the case of `Cc1cc(Cl)cc(-c2ccnc3cc(Cn4c(=O)ccn(C)c4=O)sc23)c1OC1CC[C@H](C)NC1` (stereo partly drawn) [Example 523, 3-[[7-[5-chloro-3-methyl-2-[[(6S)-6-methyl-3-piperidyl]oxy]phenyl]thieno[3,2-b]pyridin-2-yl]methyl]-1-methyl-pyrimidine-2,4-dione; 2,2,2-trifluoroacetic acid], the IC50 is less than 1 µM.

In the case of `Cc1cc(Cl)cc(-c2ccnc3cc(Cn4c(=O)ccn(CC(F)(F)F)c4=O)sc23)c1O[C@@H]1CCN(C2CCOC2)C[C@H]1C` (stereo partly drawn) [Example 608, 3-[[7-[5-chloro-3-methyl-2-[[(3R,4R)-3-methyl-1-tetrahydrofuran-3-yl-4-piperidyl]oxy]phenyl]thieno[3,2-b]pyridin-2-yl]methyl]-1-(2,2,2-trifluoroethyl)pyrimidine-2,4-dione], the IC50 is less than 1 µM.

`Cc1cc(Cl)cc(-c2ccnc3cc(Cn4c(=O)ccn(C)c4=O)sc23)c1OC1CNCC(F)(F)C1` (centres unmarked) [Example 442, 3-[[7-[5-chloro-2-[(5,5-difluoro-3-piperidyl)oxy]-3-methyl-phenyl]thieno[3,2-b]pyridin-2-yl]methyl]-1-methyl-pyrimidine-2,4-dione; 2,2,2-trifluoroacetic acid]: the IC50 is less than 1 µM.

Take `Cc1cc(C(F)(F)F)cc(-c2ccnc3cc(Cn4c(=O)c(F)cn(C)c4=O)sc23)c1O[C@H]1CCCNC1` [Example 460, 5-fluoro-1-methyl-3-[[7-[3-methyl-2-[[(3S)-3-piperidyl]oxy]-5-(trifluoromethyl)phenyl]thieno[3,2-b]pyridin-2-yl]methyl]pyrimidine-2,4-dione]: the half-maximal inhibitory concentration (IC50) is less than 1 µM.

For the compound `Cc1cc(Cl)cc(-c2ccnc3cc(Cn4c(=O)ccn(CC(F)(F)F)c4=O)sc23)c1O[C@H]1CC[C@H](N)C1` [Example 596, 3-[[7-[2-[(1S,3S)-3-aminocyclopentoxy]-5-chloro-3-methyl-phenyl]thieno[3,2-b]pyridin-2-yl]methyl]-1-(2,2,2-trifluoroethyl)pyrimidine-2,4-dione; 2,2,2-trifluoroacetic acid], the IC50 is less than 1 µM.
